# Test results as given in patent publication US8008433B2, “Methods for preventing or treating bone disorders” (Metabolic Pharmaceutical Limited, priority 2004, dated 2011).
# Where a SMILES comes first, the peptide text is derived from it. Bridges are numbered along the chain shown (N, C = ends).
# Tests used:
# [1] = system: aged rat model for post-menopausal osteoporosis; assay: Vertebral compression of L5 (trabecular bone); type: in vivo, Sprague-Dawley rats (Rattus Norvegicus); details: slow release pellet 0.01 mg/day, 12 weeks
# Description: Ninety-six aged Sprague-Dawley rats were randomly assigned to one of eight groups. The first two groups were sham operated. Group 1 was kept as a Sham control and Group 2 was treated with 2.5 mg/kg/day of recombinant human GH (rhGH) (BresaGen). The remaining six groups arrived from Harlan, ovariectomized (OVX). This surgery was performed approximately 8 days before the commencement of treatment. Group 3 was left as a control for the OVX model. Group 4 was given a treatment of 2.5 mg/kg/day of rhGH. Group 5 was treated with a low dose of AOD peptide (LAOD) 0.75 mg/kg/day and Group 6 was treated with a high dose of AOD peptide (HAOD) 2.0 mg/kg/day. […]
# Statistical analysis was performed using statistical software, SPSS (version 11.0). Comparisons involving two groups were analyzed by independent student's t-test. Multiple comparisons were analyzed by one-way ANOVA analysis using the pairwise comparison Protected Fisher's Least Significant Difference (LSD) post hoc test. […]
# Digital images were taken and image analysis software (ImageJ 1.28u, NIH) was used to determine the height and cross-sectional area of the vertebral body. […] While preloading the samples, the distance between the platens was measured using digital calipers. The gauge length was then determined by subtracting the height of the jig with the distance between the platens. […]
# C57B1/6J (Ob/Ob) mouse = details: from AU 693478; cited from earlier work
molecule,measurement,setting,value
17B-estradiol [Estrogen],"strength and stiffness (vertebral compression L5), decrease caused by OVX",[1],did not prevent a decrease
same,stress and elastic modulus values (vertebral compression L5) compared to OVX,[1],higher
"CC[C@H](C)[C@H](NC(=O)[C@H](CCCNC(=N)N)NC(=O)[C@H](CC(C)C)NC(=O)[C@@H](N)Cc1ccc(O)cc1)C(=O)N[C@H](C(=O)N[C@@H](CCC(N)=O)C(=O)N[C@H]1CSSC[C@@H](C(=O)NCC(=O)N[C@@H](Cc2ccccc2)C(=O)O)NC(=O)[C@H](CO)NC(=O)CNC(=O)[C@H](CCC(=O)O)NC(=O)[C@H](C(C)C)NC(=O)[C@H](CO)NC(=O)[C@H](CCCNC(=N)N)NC1=O)C(C)C [AOD, Tyr Leu Arg Ile Val Gln Cys Arg Ser Val Glu Gly Ser Cys Gly Phe] (H-YLRIVQCRSVEGSCGF-OH; disulfide 7-14; N-terminus and C-terminus assumed)",solubility,,> 1000 µg/mL
"hGH 177-191: synthetic peptide corresponding to amino acid residues 177-191 of the human growth hormone sequence (LRIVQCRSVEGSCGF; UniProt P01241 203-217, looked up, fragment)",adipose tissue mass,C57B1/6J (Ob/Ob) mouse,reduce
same,body weight gain,C57B1/6J (Ob/Ob) mouse,reduce
